Measured values reported in PubChem BioAssay AID2060893 (Molecular Pharmacology Branch, DTP, NCI, 2025).

Test system: K86415-001-R-J1-PDC complex spheroids, viability
Assay: Anticancer human tumor K86415-001-R-J1-PDC patient-derived lung adenocarcinoma cell line growth inhibition [RAS]
Conditions: for IC50: curve of first compound; for viability, T/C: stronger effect = lower value
In short: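 Multi-cell-type spheroids: tumor cells plus HUVEC endothelial cells and mesenchymal stem cells. RAS-pathway inhibitors were combined with targeted agents, each dosed in half-log steps down from clinical Cmax, or from 10 microM when Cmax was unknown.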

[1] = second compound 0.000949 µM, first compound 0.00316 µM
[2] = second compound 0.000949 µM, first compound 0.01 µM
[3] = second compound 0.000949 µM, first compound 0.0316 µM
[4] = second compound 0.000949 µM, first compound 0.1 µM
[5] = second compound 0.000949 µM, first compound 0.316 µM
[6] = second compound 0.000949 µM, first compound 1 µM
[7] = second compound 0.003 µM, first compound 0.00316 µM
[8] = second compound 0.003 µM, first compound 0.01 µM
[9] = second compound 0.003 µM, first compound 0.0316 µM
[10] = second compound 0.003 µM, first compound 0.1 µM
[11] = second compound 0.003 µM, first compound 0.316 µM
[12] = second compound 0.003 µM, first compound 1 µM
[13] = second compound 0.00949 µM, first compound 0.00316 µM
[14] = second compound 0.00949 µM, first compound 0.01 µM
[15] = second compound 0.00949 µM, first compound 0.0316 µM
[16] = second compound 0.00949 µM, first compound 0.1 µM
[17] = second compound 0.00949 µM, first compound 0.316 µM
[18] = second compound 0.00949 µM, first compound 1 µM
[19] = second compound 0.03 µM, first compound 0.00316 µM
[20] = second compound 0.03 µM, first compound 0.01 µM
[21] = second compound 0.03 µM, first compound 0.0316 µM
[22] = second compound 0.03 µM, first compound 0.1 µM
[23] = second compound 0.03 µM, first compound 0.316 µM
[24] = second compound 0.03 µM, first compound 1 µM
[25] = second compound 0.0949 µM, first compound 0.00316 µM
[26] = second compound 0.0949 µM, first compound 0.01 µM
[27] = second compound 0.0949 µM, first compound 0.0316 µM
[28] = second compound 0.0949 µM, first compound 0.1 µM
[29] = second compound 0.0949 µM, first compound 0.316 µM
[30] = second compound 0.0949 µM, first compound 1 µM
[31] = second compound 0.3 µM, first compound 0.00316 µM
[32] = second compound 0.3 µM, first compound 0.01 µM
[33] = second compound 0.3 µM, first compound 0.0316 µM
[34] = second compound 0.3 µM, first compound 0.1 µM
[35] = second compound 0.3 µM, first compound 0.316 µM
[36] = second compound 0.3 µM, first compound 1 µM
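Note: spheroids exposed to agents for seven days before readout.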

C=CC(=O)Nc1cc(Nc2nccc(-c3cn(C)c4ccccc34)n2)c(OC)cc1N(C)CCN(C)C + CCn1c(-c2cc(N3CCN(C)CC3)cnc2C(C)OC)c2c3cc(ccc31)-c1csc(n1)CC(NC(=O)C1CC1C)C(=O)N1CCCC(N1)C(=O)OCC(C)(C)C2
IC50 (second compound 0.000949 µM): < 3.16 nM
IC50 (second compound 0.003 µM): < 3.16 nM
IC50 (second compound 0.00949 µM): < 3.16 nM
IC50 (second compound 0.03 µM): < 3.16 nM
IC50 (second compound 0.0949 µM): < 3.16 nM
IC50 (second compound 0.3 µM): < 3.16 nM
viability, T/C [1]: 42.7%
viability, T/C [2]: 48.3%
viability, T/C [3]: 35.9%
viability, T/C [4]: 38.2%
viability, T/C [5]: 21.3%
viability, T/C [6]: 12.4%
viability, T/C [7]: 24.9%
viability, T/C [8]: 21.3%
viability, T/C [9]: 14.2%
viability, T/C [10]: 17%
viability, T/C [11]: 8.65%
viability, T/C [12]: 7.93%
viability, T/C [13]: 17.6%
viability, T/C [14]: 9.97%
viability, T/C [15]: 7.46%
viability, T/C [16]: 8.25%
viability, T/C [17]: 4.55%
viability, T/C [18]: 4.52%
viability, T/C [19]: 7.56%
viability, T/C [20]: 5.27%
viability, T/C [21]: 5.75%
viability, T/C [22]: 3.23%
viability, T/C [23]: 3.09%
viability, T/C [24]: 3.11%
viability, T/C [25]: 3.51%
viability, T/C [26]: 3.84%
viability, T/C [27]: 2.21%
viability, T/C [28]: 2.65%
viability, T/C [29]: 3.94%
viability, T/C [30]: 3.24%
viability, T/C [31]: 2.73%
viability, T/C [32]: 2.35%
viability, T/C [33]: 2.65%
viability, T/C [34]: 2.51%
viability, T/C [35]: 2.55%
viability, T/C [36]: 3.25%

O=C(c1ccc(F)c(F)c1Nc1ccc(I)cc1F)N1CC(O)([C@@H]2CCCCN2)C1 + CCn1c(-c2cc(N3CCN(C)CC3)cnc2C(C)OC)c2c3cc(ccc31)-c1csc(n1)CC(NC(=O)C1CC1C)C(=O)N1CCCC(N1)C(=O)OCC(C)(C)C2
IC50 (second compound 0.000949 µM): < 3.16 nM
IC50 (second compound 0.003 µM): < 3.16 nM
IC50 (second compound 0.00949 µM): < 3.16 nM
IC50 (second compound 0.03 µM): < 3.16 nM
IC50 (second compound 0.0949 µM): < 3.16 nM
IC50 (second compound 0.3 µM): < 3.16 nM
viability, T/C [1]: 44.4%
viability, T/C [2]: 36.8%
viability, T/C [3]: 16.1%
viability, T/C [4]: 14.3%
viability, T/C [5]: 7.06%
viability, T/C [6]: 3.12%
viability, T/C [7]: 20.1%
viability, T/C [8]: 12.8%
viability, T/C [9]: 8.83%
viability, T/C [10]: 4.83%
viability, T/C [11]: 3.13%
viability, T/C [12]: 1.88%
viability, T/C [13]: 12.8%
viability, T/C [14]: 20.7%
viability, T/C [15]: 3.97%
viability, T/C [16]: 3.06%
viability, T/C [17]: 1.18%
viability, T/C [18]: 1.4%
viability, T/C [19]: 3.31%
viability, T/C [20]: 1.65%
viability, T/C [21]: 2.04%
viability, T/C [22]: 1.29%
viability, T/C [23]: 1.25%
viability, T/C [24]: 0.85%
viability, T/C [25]: 2.17%
viability, T/C [26]: 1.59%
viability, T/C [27]: 1.36%
viability, T/C [28]: 0.82%
viability, T/C [29]: 0.8%
viability, T/C [30]: 0.95%
viability, T/C [31]: 2.23%
viability, T/C [32]: 1.56%
viability, T/C [33]: 1.42%
viability, T/C [34]: 0.74%
viability, T/C [35]: 0.89%
viability, T/C [36]: 0.77%
